Patent US20040077667A1, “Quinazolinone derivatives” (priority 2000, published 2004)
pIC50: −log10 of the molar value.

Columns and labels:
recombinant human PARP = recombinant human PARP (Homo sapiens, UniProt P09874); assay: PARP inhibitory activity (in vitro assay); format: biochemical; settings: 32P-NAD, 15 minutes at room temperature
Experimental: B. PARP Inhibitory Activity (In Vitro Assay)
The recombinant human PARP (5.3 mg protein/ml) were incubated with a test compound in a 100 μl reaction buffer containing the indicated concentration of 1 mCi/ml ^32P-NAD, 50 mM Tris-HCl, 25 mM MgCl2, 1 mM DTT (dithiothreitol), 0.05 mM NAD (nicotinamido adenine dinucleotide), 1 mg/ml activated DNA, pH8.0. Incubation was for 15 minutes at a room temperature and the reaction was stopped by the addition of 200 μl of ice-cold 20% tricholoroacetic acid followed by rapid filtration through GF/B filters. The filters were treated with scintillation fluid and acid-insoluble counts were measured for quantification of unit activity.
PARP inhibitory activity (%)=[1-(enzyme activity with test compound)/(enzyme activity with vehicle)]×100

[1] = test system: Mice MPTP(N-methyl-1,2,3,6-tetrahydropyridine)-induced Parkinson's model; assay: Effect on the level of striatal dopamine and its metabolite in mice MPTP-induced Parkinson's model; format: in vivo; settings: 32 mg/kg, two i.p. injections, four days after last MPTP, *P < 0.05 vs MPTP
Experimental: C. Effect of Test Compound on the Level of Striatal Dopamine and its Metabolite in Mice MPTP([…])-induced Parkinson's model
Mice received four i.p. injections of MPTP-HCl (20 mg/kg) in saline at 2 hours intervals and two i.p. injections of Test compound at 30 minutes before 1st injection and 3rd injection of MPTP.
Four days after the last MPTP injection, mice were sacrificed, brains were quickly removed, and striata were dissected out on an ice-cold glass Petri dish. Samples were homogenized in a buffer of 0.1M perchloric acid containing isoproterenol as internal standard. HPLC with electrochemical detection was used to measure striatal levels of DA (dopamine), DOPAC (dihydroxyphenylacetic acid) and HVA (homovanilic acid).
The level of DA, DOPAC and HVA were expressed as a percentage of Normal taken as the 100%.

Chain of recombinant human PARP (P09874 whole entry): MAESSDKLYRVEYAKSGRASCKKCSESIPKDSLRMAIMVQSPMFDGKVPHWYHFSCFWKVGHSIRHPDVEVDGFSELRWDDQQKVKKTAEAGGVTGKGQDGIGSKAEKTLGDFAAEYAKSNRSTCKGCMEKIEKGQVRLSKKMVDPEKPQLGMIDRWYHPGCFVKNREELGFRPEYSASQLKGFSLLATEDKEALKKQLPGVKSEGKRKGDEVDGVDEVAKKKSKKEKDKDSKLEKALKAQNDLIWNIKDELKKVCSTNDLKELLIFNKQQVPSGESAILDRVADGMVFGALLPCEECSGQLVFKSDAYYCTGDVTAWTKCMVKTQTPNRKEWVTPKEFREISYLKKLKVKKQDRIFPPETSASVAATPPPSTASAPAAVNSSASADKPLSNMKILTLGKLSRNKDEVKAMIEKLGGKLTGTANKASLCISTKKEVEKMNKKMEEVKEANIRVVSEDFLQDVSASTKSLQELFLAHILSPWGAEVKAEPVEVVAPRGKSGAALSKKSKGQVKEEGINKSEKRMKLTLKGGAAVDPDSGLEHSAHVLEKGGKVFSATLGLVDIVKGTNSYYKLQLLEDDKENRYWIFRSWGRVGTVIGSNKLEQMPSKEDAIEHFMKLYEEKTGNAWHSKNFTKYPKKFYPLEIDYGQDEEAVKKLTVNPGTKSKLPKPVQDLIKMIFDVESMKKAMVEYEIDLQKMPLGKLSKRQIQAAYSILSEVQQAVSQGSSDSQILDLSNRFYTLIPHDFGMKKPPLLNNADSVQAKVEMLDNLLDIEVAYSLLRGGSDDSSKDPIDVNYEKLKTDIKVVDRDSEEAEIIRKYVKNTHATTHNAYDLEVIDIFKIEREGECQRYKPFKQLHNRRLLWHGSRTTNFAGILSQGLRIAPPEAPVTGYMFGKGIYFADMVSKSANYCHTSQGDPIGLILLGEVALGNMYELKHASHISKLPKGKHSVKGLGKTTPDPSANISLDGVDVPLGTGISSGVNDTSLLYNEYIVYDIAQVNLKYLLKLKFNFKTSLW

Compound | pIC50 (recombinant human PARP) | Dopamine levels ([1]; striatal DA as percentage of Normal (100%)) | DOPAC levels ([1]; striatal DOPAC as percentage of Normal (100%)) | HVA levels ([1]; striatal HVA as percentage of Normal (100%))
O=c1[nH]c(/C=C/CN2CC=C(c3ccc(F)cc3)CC2)nc2c(Cl)cccc12 [Compound B, 8-chloro-2-{(1E)-3-[4-(4-fluorophenyl)-3,6-dihydro-1(2H)-pyridinyl]-1-propenyl}-4(3H)-quinazolinone] | > 6.30 | – | – | –
Cc1cccc2c(=O)[nH]c(CCCN3CCc4c([nH]c5ccccc45)C3)nc12 [Compound D, 8-methyl-2-[3-(1,3,4,9-tetrahydro-2H-pyrido[3,4-b]indol-2-yl)propyl]-4(3H)-quinazolinone] | > 6.30 | – | – | –
O=c1[nH]c(CCCN2CC=C(c3ccncc3)CC2)nc2c(Cl)cccc12 [Compound C, 8-Chloro-2-{[4-(4-pyridinyl)-3,6-dihydro-1(2H)-pyridinyl]propyl}-4(3H)-quinazolinone] | > 6.30 | – | – | –
O=c1[nH]c(CCCN2CC=C(c3ccccc3)CC2)nc2cccc(Cl)c12 [Compound A, 5-chloro-2-[3-(4-phenyl-3,6-dihydro-1(2H)-pyridinyl)propyl]-4(3H)-quinazolinone] | > 6.30 | 59* % | 58* % | 64* %
